Laboratory results published in US20260241012A1, “1,8-NAPHTHYRIDIN-2-ONE HETEROBIFUNCTIONAL BCL6 DEGRADERS” (Treeline Biosciences, Inc., priority 2022, published 2026).

Molecular target: T1, N-terminal HiBiT tagged BCL6 (Homo sapiens, UniProt P41182)
T1 construct: expressed in transfected cells; host or cells: HT1080 (ATCC CCL-121), stably transduced with lentivirus pLV-UBC-N-HiBiT-BCL6-PGK-puro
Test: HiBiT based degradation assay
Type: cell-based
Settings: HT1080 cells expressing N-terminal HiBiT tagged BCL6, 5 hours of incubation; for Ymin (5 hr): BCL6 degradation normalized with DMSO control; for DC50: four-parameter logistic model, read-out: EC50 (5 hr)
Text: Human BCL6 protein coding open reading frame fused with N-terminal HiBiT coding sequence was synthesized from Integrated DNA Technologies (IDT). Next, the N-HiBiT-BCL6 sequence was cloned into pLV-UBC-PGK-Puro, a lentivirus plasmid purchased from Vectorbuilder, to generate pLV-UBC-N-HiBiT-BCL6-PGK-puro. Lentiviral particles were generated from Lenti-X™ 293T cells (Clontech) by co-transfection of pLV-UBC-N-HiBiT-BCL6-PGK-puro plasmids and lentiviral packaging plasmid mix (Cellecta). HT1080 [HT1080] (ATCC CCL-121) cells were infected with the lentivirus, and HT1080 cells stably integrated with the lentiviral vectors were established by incubation with 1 μg/mL puromycin (Thermofisher).
HT1080 cells expressing N-terminal HiBiT tagged BCL6 were dispensed into a 384-well plate pre-spotted with compounds at varying concentrations. Five thousand cells were seeded into each well in 40 μL of RPMI 1640 media plus 10% Fetal Bovine Serum (10082-147, Thermofisher). After 5 hours of incubation at 37° C. with 5% CO2, 30 μL of the NANO-GLOR HiBiT Lytic Detection System working solution (Promega) was added to each well and incubated at room temperature for 15 min. After incubation, luminescence was read on a PHERAstar FSX Plate Reader (BMG). BCL6 degradation at each indicated concentration was normalized with DMSO control. The BCL6 degradation curves were plotted using a four-parameter logistic model.

## CNC(=O)COc1cc2cc(Nc3nc(N4CC5(CC[C@H](Nc6ccc7c(C8CCC(=O)NC8=O)nn(C)c7c6)[C@H](C)C5)C4)ncc3Cl)cnc2n(C)c1=O (relative stereo) [Compound 156b, 2-((6-((5-chloro-2-((6R,7S)-7-((3-(2,6-dioxopiperidin-3-yl)-1-methyl-1H-indazol-6-yl)amino)-6-methyl-2-azaspiro[3.5]nonan-2-yl)pyrimidin-4-yl)amino)-1-methyl-2-oxo-1,2-dihydro-1,8-naphthyridin-3-yl)oxy)-N-methylacetamide]
  Ymin (5 hr): ++++ (Ymin < 30%)
  DC50: < 10 nM

## CNC(=O)COc1cc2cc(Nc3nc(N4CC5(CC[C@@H](Nc6ccc7c(C8CCC(=O)NC8=O)nn(C)c7c6)[C@H](C)C5)C4)ncc3Cl)cnc2n(C)c1=O (relative stereo) [Compound 156d, 2-((6-((5-chloro-2-((6R,7R)-7-((3-(2,6-dioxopiperidin-3-yl)-1-methyl-1H-indazol-6-yl)amino)-6-methyl-2-azaspiro[3.5]nonan-2-yl)pyrimidin-4-yl)amino)-1-methyl-2-oxo-1,2-dihydro-1,8-naphthyridin-3-yl)oxy)-N-methylacetamide]
  Ymin (5 hr): ++++ (Ymin < 30%)
  DC50: < 10 nM

## CNC(=O)COc1cc2cc(Nc3nc(N4CC5(CC[C@H](Nc6cccc7c(C8CCC(=O)NC8=O)nn(C)c67)[C@H](C)C5)C4)ncc3Cl)cnc2n(C)c1=O (relative stereo) [Compound 159a, 2-((6-((5-chloro-2-((6R,7S)-7-((3-(2,6-dioxopiperidin-3-yl)-1-methyl-1H-indazol-7-yl)amino)-6-methyl-2-azaspiro[3.5]nonan-2-yl)pyrimidin-4-yl)amino)-1-methyl-2-oxo-1,2-dihydro-1,8-naphthyridin-3-yl)oxy)-N-methylacetamide]
  Ymin (5 hr): +++ (30% ≤ Ymin < 50%)
  DC50: < 10 nM

## CNC(=O)COc1cc2cc(Nc3nc(N4CC5(CC[C@@H](Nc6cccc7c(C8CCC(=O)NC8=O)nn(C)c67)[C@@H](C)C5)C4)ncc3Cl)cnc2n(C)c1=O (relative stereo) [Compound 159b, 2-((6-((5-chloro-2-((6S,7R)-7-((3-(2,6-dioxopiperidin-3-yl)-1-methyl-1H-indazol-7-yl)amino)-6-methyl-2-azaspiro[3.5]nonan-2-yl)pyrimidin-4-yl)amino)-1-methyl-2-oxo-1,2-dihydro-1,8-naphthyridin-3-yl)oxy)-N-methylacetamide]
  Ymin (5 hr): +++ (30% ≤ Ymin < 50%)
  DC50: < 10 nM

## CNC(=O)COc1cc2cc(Nc3nc(N4CC5(CC[C@@H](Nc6ccc7c(C8CCC(=O)NC8=O)nn(C)c7c6)[C@@H](C)C5)C4)ncc3Cl)cnc2n(C(C)C)c1=O (relative stereo) [Compound 180a, rel-2-((6-((5-chloro-2-((6S,7R)-7-((3-(2,6-dioxopiperidin-3-yl)-1-methyl-1H-indazol-6-yl)amino)-6-methyl-2-azaspiro[3.5]nonan-2-yl)pyrimidin-4-yl)amino)-1-isopropyl-2-oxo-1,2-dihydro-1,8-naphthyridin-3-yl)oxy)-N-methylacetamide]
  Ymin (5 hr): +++ (30% ≤ Ymin < 50%)
  DC50: 10 to 100 nM

## CNC(=O)COc1cc2cc(Nc3nc(N4CC5(CC[C@H](Nc6ccc7c(C8CCC(=O)NC8=O)nn(C)c7c6)[C@H](C)C5)C4)ncc3Cl)cnc2n(C(C)C)c1=O (relative stereo) [Compound 180b, rel-2-((6-((5-chloro-2-((6R,7S)-7-((3-(2,6-dioxopiperidin-3-yl)-1-methyl-1H-indazol-6-yl)amino)-6-methyl-2-azaspiro[3.5]nonan-2-yl)pyrimidin-4-yl)amino)-1-isopropyl-2-oxo-1,2-dihydro-1,8-naphthyridin-3-yl)oxy)-N-methylacetamide]
  Ymin (5 hr): +++ (30% ≤ Ymin < 50%)
  DC50: < 10 nM

## CNC(=O)COc1cc2cc(Nc3nc(N4CC5(CC[C@H](Nc6ccc7c(C8CCC(=O)NC8=O)nn(C)c7c6)[C@@H](C)C5)C4)ncc3Cl)cnc2n(C(C)C)c1=O (relative stereo) [Compound 180c, rel-2-((6-((5-chloro-2-((6S,7S)-7-((3-(2,6-dioxopiperidin-3-yl)-1-methyl-1H-indazol-6-yl)amino)-6-methyl-2-azaspiro[3.5]nonan-2-yl)pyrimidin-4-yl)amino)-1-isopropyl-2-oxo-1,2-dihydro-1,8-naphthyridin-3-yl)oxy)-N-methylacetamide]
  Ymin (5 hr): ++++ (Ymin < 30%)
  DC50: < 10 nM

## CNC(=O)COc1cc2cc(Nc3nc(N4CC5(CC[C@@H](Nc6ccc7c(C8CCC(=O)NC8=O)nn(C)c7c6)[C@H](C)C5)C4)ncc3Cl)cnc2n(C(C)C)c1=O (relative stereo) [Compound 180d, rel-2-((6-((5-chloro-2-((6R,7R)-7-((3-(2,6-dioxopiperidin-3-yl)-1-methyl-1H-indazol-6-yl)amino)-6-methyl-2-azaspiro[3.5]nonan-2-yl)pyrimidin-4-yl)amino)-1-isopropyl-2-oxo-1,2-dihydro-1,8-naphthyridin-3-yl)oxy)-N-methylacetamide]
  Ymin (5 hr): ++++ (Ymin < 30%)
  DC50: < 10 nM

## CNC(=O)COc1cc2cc(Nc3nc(N4CC5(CC[C@@H](Oc6ccc7c(C8CCC(=O)NC8=O)nn(C)c7c6)[C@@H](C)C5)C4)ncc3Cl)cnc2n(C(C)C)c1=O (relative stereo) [Compound 185b, 2-[[6-[[5-chloro-2-[(6S,7R)-7-[3-(2,6-dioxo-3-piperidyl)-1-methyl-indazol-6-yl]oxy-6-methyl-2-azaspiro[3.5]nonan-2-yl]pyrimidin-4-yl]amino]-1-isopropyl-2-oxo-1,8-naphthyridin-3-yl]oxy]-N-methyl-acetamide]
  Ymin (5 hr): ++++ (Ymin < 30%)
  DC50: < 10 nM

## CNC(=O)COc1cc2cc(Nc3nc(N4CC5(CC[C@H](Oc6ccc7c(C8CCC(=O)NC8=O)nn(C)c7c6)[C@@H](C)C5)C4)ncc3Cl)cnc2n(C(C)C)c1=O (relative stereo) [Compound 185c, 2-[[6-[[5-chloro-2-[(6S,7S)-7-[3-(2,6-dioxo-3-piperidyl)-1-methyl-indazol-6-yl]oxy-6-methyl-2-azaspiro[3.5]nonan-2-yl]pyrimidin-4-yl]amino]-1-isopropyl-2-oxo-1,8-naphthyridin-3-yl]oxy]-N-methyl-acetamide]
  Ymin (5 hr): ++++ (Ymin < 30%)
  DC50: < 10 nM

## CNC(=O)COc1cc2cc(Nc3nc(N4CC5(CC[C@@H](Oc6ccc7c(C8CCC(=O)NC8=O)nn(C)c7c6)[C@H](C)C5)C4)ncc3Cl)cnc2n(C(C)C)c1=O (relative stereo) [Compound 185d, 2-[[6-[[5-chloro-2-[(6R,7R)-7-[3-(2,6-dioxo-3-piperidyl)-1-methyl-indazol-6-yl]oxy-6-methyl-2-azaspiro[3.5]nonan-2-yl]pyrimidin-4-yl]amino]-1-isopropyl-2-oxo-1,8-naphthyridin-3-yl]oxy]-N-methyl-acetamide]
  Ymin (5 hr): ++++ (Ymin < 30%)
  DC50: < 10 nM

## CNC(=O)COc1cc2cc(Nc3nc(N4CC5(CC[C@@H](Nc6ccc7c(C8CCC(=O)NC8=O)nn(C)c7c6)[C@@H](C(F)(F)F)C5)C4)ncc3Cl)cnc2n(C(C)C)c1=O (relative stereo) [Compound 221a, 2-((6-((5-chloro-2-((6S,7R)-7-((3-(2,6-dioxopiperidin-3-yl)-1-methyl-1H-indazol-6-yl)amino)-6-(trifluoromethyl)-2-azaspiro[3.5]nonan-2-yl)pyrimidin-4-yl)amino)-1-isopropyl-2-oxo-1,2-dihydro-1,8-naphthyridin-3-yl)oxy)-N-methylacetamide]
  Ymin (5 hr): ++++ (Ymin < 30%)
  DC50: < 10 nM

## CNC(=O)COc1cc2cc(Nc3nc(N4CC5(CC[C@H](Nc6ccc7c(C8CCC(=O)NC8=O)nn(C)c7c6)[C@@H](C(F)(F)F)C5)C4)ncc3Cl)cnc2n(C(C)C)c1=O (relative stereo) [Compound 221b, rel-2-((6-((5-chloro-2-((6S,7S)-7-((3-(2,6-dioxopiperidin-3-yl)-1-methyl-1H-indazol-6-yl)amino)-6-(trifluoromethyl)-2-azaspiro[3.5]nonan-2-yl)pyrimidin-4-yl)amino)-1-isopropyl-2-oxo-1,2-dihydro-1,8-naphthyridin-3-yl)oxy)-N-methylacetamide]
  Ymin (5 hr): ++++ (Ymin < 30%)
  DC50: < 10 nM

## CNC(=O)COc1cc2cc(Nc3nc(N4CC[C@@H](CN5CCN(c6cccc7c(C8CCC(=O)NC8=O)nn(C)c67)CC5)[C@H](F)C4)ncc3Cl)cnc2n(C(C)C)c1=O (relative stereo) [Compound 238a, 2-((6-((5-chloro-2-((3S,4S)-4-((4-(3-(2,6-dioxopiperidin-3-yl)-1-methyl-1H-indazol-7-yl)piperazin-1-yl)methyl)-3-fluoropiperidin-1-yl)pyrimidin-4-yl)amino)-1-isopropyl-2-oxo-1,2-dihydro-1,8-naphthyridin-3-yl)oxy)-N-methylacetamide]
  Ymin (5 hr): ++++ (Ymin < 30%)
  DC50: 10 to 100 nM
